Read-outs that look alike come from different tables or passages of the source.
Tests used:
L. reuteri PYR8 = test: Whole cell biotransformation of linoleic acid to CLA by L. reuteri PYR8; format: cell-based, Lactobacillus reuteri; conditions: for effect on (cis,trans)-9,11-CLA formation: nonionic detergent added
Experimental: Cultures were grown and harvested as described above. Washed cells were resuspended in either fresh growth medium or 0.1 M Tris pH 8.0 buffer containing linoleic acid at various concentrations.
Samples were taken at appropriate intervals and analyzed for CLA as described in Example 2. In some experiments, various detergents were added to 0.1-0.5% final concentration. […] About 5 mL solvent was added to about 20 mL aqueous cell suspension in a 125 mL baffled shake flask incubated at room temperature.
Whole cells of L. reuteri PYR8 were used in all biotransformation experiments described below.
The effect of substrate and product on the enzyme performance was also investigated, as well as the possibility of recycling the cells. The effect of CLA on the reaction was studied by adding different concentrations of either a mixture of isomers (Sigma material, approximately 41% 9,11 isomer and 48% 10,12 CLA), or just 9,11 CLA (Matreya material, approximately 77% 9,11 CLA). Concentrations from 500 to 3000 ppm were tested. Some experiments were also performed recycling the broth from a previous biotransformation reaction with L. reuteri PYR8, resulting in an initial CLA concentration around 700 ppm. In every case, 1000 ppm linoleic acid were added.
In the second experiment, cell recycle was studied with cells that have performed the biotransformation at different levels of linoleic acid. Cells were harvested, resuspended in breakage buffer at a 10-fold concentration, and linoleic acid was added at 1000, 1500, 2000, 2500 and 3000 ppm level. Given the higher linoleic acid concentration, the reaction was allowed to proceed for six hours. […] 1000 ppm linoleic acid were added and the reaction was followed for four hours.

[1] = system: C. sporogenes ATCC 25762 linoleate isomerase; test: C. sporogenes isomerase activity and stability in extracts with additives; format: biochemical, Clostridium sporogenes; conditions: for effect of chelating agents on enzyme activity and stability: 1 mM; for effect on the stability of the isomerase: PMSF 0.1-1.0 mM, iodoacetamide 1 mM
Experimental: Temperature sensitivity of the isomerase in crude extracts was tested at 4° C., room temperature (˜25° C.) and 37° C. […] The optimum pH was monitored by adjusting the pH from 5.0 to 9.0 using the 0.1M Tris buffer containing 10 mM NaCl, 1 mM DTT and 40 ppm linoleic acid.
The concentration of linoleic acid was tested from 0 to 100 ppm (FIG. 26).
Two different media, BHI and MRS, were tested. […] Protease inhibitors, PMSF (0.1-1.0 mM), iodoacetamide (1 mM) and pepstatin A were tested for their effects on the stability of the isomerase.
It has been reported that solubilization in the presence of lysophosphatidylcholine (LPC) allows higher detergent concentrations to be used, thus allowing more complete membrane protein solubilization. CaCl2 can activate enzymes, such as some nucleases.

[2] = molecular target: P. acnes ATCC 6919 linoleate isomerase (Cutibacterium acnes, UniProt Q6A8X5); format: biochemical, Propionibacterium acnes
P. acnes ATCC 6919 linoleate isomerase, sequence (Q6A8X5 entry or part of it): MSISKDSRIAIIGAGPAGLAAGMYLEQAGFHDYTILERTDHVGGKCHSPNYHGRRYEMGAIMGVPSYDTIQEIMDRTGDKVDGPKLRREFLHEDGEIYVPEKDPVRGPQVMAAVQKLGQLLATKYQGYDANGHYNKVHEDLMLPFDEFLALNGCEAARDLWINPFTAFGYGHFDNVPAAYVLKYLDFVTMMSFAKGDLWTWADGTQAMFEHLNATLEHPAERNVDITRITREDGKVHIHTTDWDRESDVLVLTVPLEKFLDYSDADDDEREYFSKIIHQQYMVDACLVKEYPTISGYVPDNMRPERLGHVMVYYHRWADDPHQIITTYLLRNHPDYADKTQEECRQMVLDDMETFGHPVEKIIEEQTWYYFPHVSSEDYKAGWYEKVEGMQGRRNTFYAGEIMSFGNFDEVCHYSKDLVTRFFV
Experimental: Formation of CLA was determined by measuring the absorbence at 234 nm. […] Generally, the isomerase was assayed using an endpoint assay after 30 to 60 minutes incubation at room temperature. FIG. 18 (time course assay at different linoleic acid levels) and FIG. 19 (end point assay at different linoleic acid levels) show the effect of increasing substrate concentration on formation of […].

[3] = cited from earlier work
[4] = system: B. fibrisolvens A-38 linoleate isomerase; conditions: cited from earlier work; for Km / Vmax: compound as substrate, Kepler and Tove (1967)
[5] = system: linoleate isomerase from Clostridium sporogenes; test: C. sporogenes linoleate isomerase kinetic assay, absorbence at 234 nm, partially purified enzyme; format: biochemical; conditions: for substrate has an inhibitory effect at concentrations above: substrate concentration dependency of isomerization
Experimental: In this experiment, all kinetic experiments were performed in a quartz cuvette (1-cm light-path with a magnetic stirrer) at room temperature using a HP 8452A diode array spectrophotometer. The cuvette was filled with 1 ml of incubation buffer containing 50 μg protein, 0.1 M potassium phosphate, pH7.5, 10 mM NaCl and 10% 1,2-propane diol. The isomerization was initiated by adding a small aliquot (1-2 μl) of freshly diluted substrate-stock (˜[…] linoleic acid) in 1,2-propane diol at 50 seconds. The increase in absorbence at 234 nm was monitored and recorded. […] The amount of product formed was calculated based on a molar extinction coefficient of 24,000.

[6] = system: L. reuteri PYR8 linoleate isomerase; test: L. reuteri PYR8 linoleate isomerase kinetic assay; format: biochemical, Lactobacillus reuteri
Experimental: Linoleic isomerase activity was assayed either via CLA quantification by gas chromatography as described in Example 2 or by spectrophotometry. The enzyme assay was carried out in 0.1 M Tris buffer pH 7.5, 10 mM NaCl, 1 mM dithiothreitol, with linoleic acid at 20 parts per million (ppm), unless otherwise noted.
About 50 to about 250 μL of enzyme sample was added to 1.5 mL of enzyme assay buffer for reaction. About 1 to about 2 mL of aqueous phase was separated from the enzyme reaction and was extracted with about 3 mL of hexane. In some experiments, and with chromatography fractions containing detergent, 0.5 mL of methanol and 0.5 mL of 5 M NaCl solution were first added to enhance phase separation. The organic layer was separated and the absorbence at 234 nm was measured using a HP 8452A diode array spectrophotometer. Depending on the level of activity, assay mixtures of chromatography fractions were incubated at room temperature from about 1 to about 24 hours before extraction with hexane.
Kinetic assays were performed directly in a 0.5 mL quartz cuvette at room temperature and were continuously monitored at 234 nm. Reactions were initiated by addition of linoleic acid from a concentrated stock prepared in 1,2-propane diol. Reaction buffer was the same as above except it contained 10% 1,2-propane diol.

[7] = Linoleate isomerase characterization (Table 7B), enzymes compared on linoleic acid; format: biochemical
Experimental: Table 7B is a summary of the kinetic data and characterization of linoleate isomerases from P. acnes (crude extract prior to DEAE purification as in Example 11, except that the Vmax was determined using enzyme purified through the chromatofocusing step as in Example 11), L. reuteri (enzyme purified through the gel filtration step as in Example 3), and C. sporogenes (enzyme purified through the gel filtration step as in Example 17), all isolated by the present inventors, and the B. fibrisolvens A-38 linoleate isomerase (crude extract; Kepler and Tove, 1967, J. Biochem. 242:5686-5692). The substrate in these experiments was linoleic acid.

[8] = compound as substrate at 10 PPM, activity with linoleic acid set as 100%
[9] = pH of about 7.5, about 20° C., read-out: Km for linoleic acid
[10] = compound as substrate, read-out: Km
[11] = substrate linoleic acid, purified enzyme

## Triton X-100
L. reuteri PYR8
  effect on (cis,trans)-9,11-CLA formation: does not significantly increase

## c1cnc2c(c1)ccc1cccnc12 [1,10-phenanthroline]
[1]; crude extracts
  effect of chelating agents on enzyme activity and stability: protected
[2]; EDTA 5 mM, 1,10-phenanthroline 1 mM, p-chloromercuribenzoate 5 μM, N-ethylmaleimide 100 μM
  inhibition of isomerase activity: not inhibited

## [Ca+2].[Cl-].[Cl-] [CaCl2]
[1]; Tris and phosphate buffer systems
  effect on enzyme activity: decreased the enzyme activity

## CCCCCCCC/C=C\CCCCCCCC(=O)OCCOCC(OCCO)C1OCC(OCCO)C1OCCO (centres unmarked) [Tween-80]
L. reuteri PYR8
  effect on (cis,trans)-9,11-CLA formation: does not significantly increase

## CCCCCCCCCCCCCCCC [hexadecane]
[3]
  log P: 8.6

## CCCCCCCC/C=C\CCCCCCCC(=O)O [oleic acid, (cis)-9 octadecenoic acid]
[4]; reported by Kepler and Tove
  type of inhibition: competitive inhibition
[5]; 0, 24 and 48 μM oleic acid, varied linoleic acid, Lineweaver-Burke and Hanes-Woolf plots
  type of inhibition: uncompetitive inhibitor
[5]; 70 μM oleic acid (20 PPM)
  isomerase activity in the presence of inhibitor: almost completely lost
[5]; compound added at 35 μM, substrate LA 35 μM, pH 7.5, LA alone = 100%
  RELATIVE ACTIVITY %: 25%
[5]; [8]
  RELATIVE ACTIVITY %: 0%
[5]; inhibition of linoleic acid isomerization, calculated from secondary plots, read-out: inhibition constants (Ki)
  Ki: 23.8 µM

## NC(=O)CI [iodoacetamide]
[1]
  effect on the stability of the isomerase: None provided measurable benefit

## O=C(O)CN(CCN(CC(=O)O)CC(=O)O)CC(=O)O [EDTA]
[1]; crude extracts
  effect of chelating agents on enzyme activity and stability: negative effect

## CCCCC/C=C\C/C=C\CCCCCCCC(=O)O [linoleic acid, (cis, cis)-9, 12-octadecadienoic acid]
[4]
  Km: 12 µM
  Vmax: 55 nmole/min/mg protein
L. reuteri PYR8; up to 3000 ppm linoleic acid, cells with good activity
  substrate inhibition: no substrate inhibition was detected
[1]; tested from 0 to 100 ppm, crude extracts
  optimum concentration for linoleic acid: 40 ppm
[2]; [9]
  Km: ≥ 17.2 µM
[6]; compound as substrate
  Vmax: 880 nmole/min/mg protein
[6]; [10]
  Km: 8.1 µM
[6]; [9]
  Km: ≥ 8.1 µM
[5]; Lineweaver-Burke plot
  maximal velocity (Vmax): 350 μmol CLA/min/mg protein
[5]; Lineweaver-Burke plot, read-out: Km
  Km: 11.3 µM
[5]; compound as substrate
  Vmax: 350 nmole/min/mg protein
[5]; [8]
  RELATIVE ACTIVITY %: 100%
[5]; [10]
  Km: 11.3 µM
[5]; [9]
  Km: ≥ 11.3 µM
[5]
  substrate has an inhibitory effect at concentrations above: above 20 μM

## CC/C=C\C/C=C\C/C=C\CCCCCCCC(=O)O [linolenic acid, (cis, cis, cis)-9, 12, 15 octadecatrienoic acid]
[4]
  Km: 23 µM
  Vmax: 130 nmole/min/mg protein
[5]; compound as substrate
  Vmax: 811 nmole/min/mg protein
[5]; [8]
  RELATIVE ACTIVITY %: 84%
[5]; [10]
  Km: 22.5 µM
[5]
  substrate has an inhibitory effect at concentrations above: > 40 µM

## O=S(=O)(F)Cc1ccccc1 [PMSF]
[1]
  effect on the stability of the isomerase: None provided measurable benefit

## pepstatin A
[1]
  effect on the stability of the isomerase: None provided measurable benefit

B1: L. reuteri: (cis, trans)-9,11-linoleate isomerase from Lactobacillus reuteri PYR8, SEQ ID NO:18 (protein, listed as Lactobacillus reuteri)
chain: MYYSNGNYEAFARPKKPAGVDKKHAYIVGGGLAGLSAAVFLIRDAQMPGENIHILEELPVAGGSLDGEDRPGIGFVTRGGREMENHFECMWDMYRSIPSLEIPGASYLDEYYWLDKEDPNSSNCRLTYKRGNEVPSDGKYGLSKKAIKELTKLIMTPEEKLGRETIGEYFSDDFFESNFWIYWSTMFAFERWHSLAEMRRYMMRFIHHIDGLPDFTALKFNKYNQYESMTKPLLAYLKDHHVKIEYDTQVKNVIVDTHGRQKHAKRILLTQAGKDKVVELTDNDLVFVTNGSITESSTYGSHHQAARPTQALGGSWKLWENLARQSADFGHPDVFCKNLPGRSWFISATATVKNPQVEPYIERLTKRDLHDGKVNTGGIITVTDSNWMLSWTIHRQPHFKKQKKNETIVWIYGLYSNTKGNYIKKRIVDCTGEEITKEWLSIWGFQKPLIDDLAKESSINTVPVYMPFITSYFMPRVKGDRPDVVPEGSANLAFIGNFAESPSRDTVFTTEYSVRTAMEAVYTLLDVDRGVPEVFNSIYDLRELMRAMYYMNDKKPLKDMDLPIPKIVEKPLLKKLQGTWIGELMEQQHLL
[7]; CLA isomer produced from linoleic acid
  CLA Isomer: 9,11
[7]; substrate linoleic acid
  Optimal pH: 7.5
[7]; [11]
  Km: 8.1 µM
  Vmax: 880^5 nmol/min/mg
